Test results published in US20110294721A1, “ANTIMICROBIAL PEPTIDES” (priority 2008, published 2011).
Several values for one entry are separate records, joined by “and”; a condition that tells them apart may be missing. Equal entries are not always repeated. Where two headings read alike, the source gives them in different places. No end group written: not given here.

Legend:
[1] = system: Clavibacter michiganensis sub. michiganensis; conditions: complete inhibition of bacterial growth; overnight 25° C.; Table 1
[2] = system: Pseudomonas syringae pv. syringae
[3] = system: Xanthomonas vesicatoria
[4] = system: Pectobacterium carotovorum sub. carotovorum
[5] = system: Pseudomonas syringae pv. tomato
[6] = system: Botrytis cinerea; test: MIC in-vitro inhibition assay, antifungal (Example 2); format: cell-based; conditions: complete inhibition of spore germination/mycelial growth; Table 1
Procedure: (§1) In-vitro inhibition assays were performed in sterile flat-bottom 96-well plates (Greiner bio-one, Frickenhausen). Antimicrobial peptides were dissolved in 0.01% acetic acid containing 0.2% BSA (500 μg/ml), filter sterilized and stored at −20° C. For inhibition assays dilutions of peptides ranging from 5 to 200 μg/ml were prepared and 10 μl (antibacterial assay) or 20 μl (antifungal assay) of each concentration was loaded per well.
(§2) Spores of fungi were collected by water washes of sporulating cultures grown on 2% malt extract agar and spore concentration was determined by microscopy. The concentration of the spores was adjusted to 1.5-2×10^3 spores/ml in 2% malt extract medium and 80 μl of fungal spores were added per well. The final peptide concentrations used in the fungal inhibition assays were 0, 2, 4, 10, 20, 40, and 100 μg/ml. After overnight incubation at room temperature the plate were put on a rotary shaker (300 rpm) for further two days to ensure consistantly growth. Antifungal effects of the peptides were determined by a microplate reader (Altemaria, Fusarium) at OD590 nm or by visual screening of the plates (Bottytis, Cladosporium).
(§3) The lowest peptide concentration leading to complete inhibition of bacterial growth or spore germination/mycelial growth (minimal inhibition concentration, MIC) was determined for each organism-peptide combination. For each peptide concentration two identical inhibition assays were performed.

[7] = system: Cladosporium herbarum; test: as above; format: cell-based; conditions: complete inhibition of spore germination/mycelial growth; Table 1
Procedure: as §1, §2, §3

[8] = system: Alternaria alternata; test: as above; format: cell-based; conditions: complete inhibition of spore germination/mycelial growth; Table 1
Procedure: as §1, §2, §3

[9] = system: Pseudomonas corrugata
[10] = system: HeLa cells (LC5-RIC); format: cell-based, human
Procedure: (§4) Antimicrobial oligopeptides were dissolved in 0.01% acetic acid containing 0.2% BSA (500 μg/ml), filter sterilized and stored at −20° C. […] (in 5% CO2). Afterwards, virus particles were added to the pre-treated HeLa cells and the infection was quantified by measuring red fluorescence with a fluorescence microplate reader after 72 h incubation. The viability of the HeLa cells was determined by measuring the activity of the mitochondrial dehydrogenase according to Lindl and Bauer (1994) and Mosmann (1983).

[11] = system: human immundeficiency virus (HIV); format: cell-based; conditions: HeLa cells pre-treated 30 min at 37° C.; red fluorescence after 72 h; read-out: IC50, concentration where the infection is decreased by 50% (compared to non-treated controls)
Procedure: Cells were pretreated with 6.3 μg/ml SP13-3 and SP13-14 or buffer for 30 min at 37° C. before addition of virus particles. […] Shown is an overlay of pictures taken under transmitted light and fluorescence after 72 hours incubation. The viability of the HeLa cells was determined by measuring the activity of the mitochondrial dehydrogenase.
To measure the activity of the designed oligopeptides against human immundeficiency virus (HIV) a fluorescence-based reporter system was used. HeLa cells (LC5-RIC) harbour a reporter gene, which regulates in dependency of HIV Rev and Tat proteins the synthesis of a red fluorescing protein. In this way the infection of the HeLa cells (LC5-RIC) is indicated and the infection rate can be quantified using a fluorescence microplate reader.
as §4

[12] = system: Pseudomonas corrugata; conditions: Table 2; for LC (lethal concentration): 100% inhibition after at least 4 days of incubation; for MIC: >90% inhibition, 1-2 days at 25° C.
Procedure: as §1
(§5) Bacteria colonies from overnight agar plate cultures were resuspended into 5 ml LB-medium or HPG-medium (OD600 nm=0.08-0.1) and diluted into LB-medium/HPG-medium (1:100). 90 μl of this suspension containing about 10^5-10^6 CFU/ml of tested bacteria were added to each well resulting in final peptide concentrations of 0, 0.5, 1, 2, 5, 10, and 20 μg/ml. […] The lowest concentration, in which there is no observable growth (>90% inhibition) is referred to as minimal inhibitory concentration (MIC). […] For each peptide concentration two identical inhibition assays were performed.

[13] = system: Pseudomonas syringae pv. tomato; test: MIC and lethal concentration (LC) assay (Example 3); format: cell-based; conditions: Table 2; for LC (lethal concentration): 100% inhibition after at least 4 days of incubation; for MIC: >90% inhibition, 1-2 days at 25° C.
Procedure: as §1, §5

[14] = system: Pseudomonas syringae pv. syringae; test: as above; format: cell-based; conditions: Table 2; for LC (lethal concentration): 100% inhibition after at least 4 days of incubation; for MIC: >90% inhibition, 1-2 days at 25° C.
Procedure: as §1, §5

[15] = system: Clavibacter michiganensis; test: as above; format: cell-based; conditions: Table 2; for LC (lethal concentration): 100% inhibition after at least 4 days of incubation; for MIC: >90% inhibition, 1-2 days at 25° C.
Procedure: as §1, §5

[16] = system: Pectobacterium carotovorum; test: as above; format: cell-based; conditions: Table 2; for LC (lethal concentration): 100% inhibition after at least 4 days of incubation; for MIC: >90% inhibition, 1-2 days at 25° C.
Procedure: as §1, §5

[17] = system: Xanthomonas vesicatoria; test: as above; format: cell-based; conditions: Table 2; for LC (lethal concentration): 100% inhibition after at least 4 days of incubation; for MIC: >90% inhibition, 1-2 days at 25° C.
Procedure: as §1, §5

[18] = system: Xylella fastidiosa; conditions: reported by Kuzina et al (2006); cited from earlier work
[19] = complete inhibition of bacterial growth, overnight 25° C., Table 1

| Substance | Minimal inhibition concentration (MIC) [6] [µg/mL] | Minimal inhibition concentration (MIC) [7] [µg/mL] | Minimal inhibition concentration (MIC) [8] [µg/mL] | negative/toxic effect on test cells (HeLa cells) [10] | IC50 [11] [nM] | LC (lethal concentration) [12] | MIC [12] | LC (lethal concentration) [13] | MIC [13] | LC (lethal concentration) [14] | MIC [14] | LC (lethal concentration) [15] | MIC [15] | LC (lethal concentration) [16] | MIC [16] | LC (lethal concentration) [17] [µg/mL] | MIC [17] [µg/mL] | other results |
| --- | --- | --- | --- | --- | --- | --- | --- | --- | --- | --- | --- | --- | --- | --- | --- | --- | --- | --- |
| KRRLIARILRLAARALVKKR (also: D-amino acids at unstated positions) [SP13-D] | >40 | 5 | 20 | – | – | – | – | – | – | – | – | – | – | – | – | – | – | Minimal inhibition concentration (MIC) [1]: 10 µg/mL; Minimal inhibition concentration (MIC) [2, 19]: 2.5 µg/mL; Minimal inhibition concentration (MIC) [3, 19]: 2 µg/mL; Minimal inhibition concentration (MIC) [4, 19]: >40 µg/mL; Minimal inhibition concentration (MIC) [5, 19]: 1 µg/mL; Minimal inhibition concentration (MIC) [9, 19]: 40 µg/mL |
| KRRLALFRLFRLALKLVLKK-NH2 [SP13-11] | – | – | – | No negative/toxic effect | 2100 | >10/>10 μg/ml | >10/>10 μg/ml | 5.0 µg/mL | 2.5 µg/mL | >10/>10 μg/ml | >10/>10 μg/ml | 2.5/2.5 μg/ml | 2.5/2.5 μg/ml | >10/>10 μg/ml | >10/>10 μg/ml | 5.0 | 2.5 | – |
| KRRLIARILRLAARALVKKR-NH2 [SP13] | >100 | 20 | >100 | – | – | 1.0 µg/mL | 0.25 µg/mL | 5.0/5.0 μg/ml | 5.0/5.0 μg/ml | 0.5/0.5 μg/ml | 0.5/0.5 μg/ml | 1.0 µg/mL | 0.25 µg/mL | 10/>10 μg/ml | 10/>10 μg/ml | 0.5 | 0.1 | Minimal inhibition concentration (MIC) [1]: 2.5 µg/mL; Minimal inhibition concentration (MIC) [2]: 10 µg/mL; Minimal inhibition concentration (MIC) [3]: 2.5 µg/mL; Minimal inhibition concentration (MIC) [4]: >40 µg/mL; Minimal inhibition concentration (MIC) [5]: 20 µg/mL; Minimal inhibition concentration (MIC) [9]: 2.5 µg/mL |
| KRRKLAFRLFRLFLKLVLKK-NH2 [SP13-14] | – | – | – | No negative/toxic effect | 1200 | > 10 µg/mL | 2.5 µg/mL | 5.0 µg/mL | 2.5 µg/mL | 10 µg/mL | 5.0 µg/mL | 2 to 5 µg/mL | 0.5 µg/mL | >10/>10 μg/ml | >10/>10 μg/ml | 2.5 | 0.25 | – |
| KRRLILRILRLAIRILVKKR-NH2 [SP13-3] | – | – | – | No negative/toxic effect | 2100 | >10/>10 μg/ml | >10/>10 μg/ml | 10/10 μg/ml | 10/10 μg/ml | >10/>10 μg/ml | >10/>10 μg/ml | 10 µg/mL | 2.5 µg/mL | >10/>10 μg/ml | >10/>10 μg/ml | 10 | 2.5 | – |
| KRRKLIKILKLIAKLIRKKR-NH2 [SP13-7] | – | – | – | – | – | 2.5 µg/mL | 0.5 µg/mL | 10/>10 μg/ml | 10/>10 μg/ml | >10/>10 μg/ml | >10/>10 μg/ml | 0.5 µg/mL | 0.25 µg/mL | >10/>10 μg/ml | >10/>10 μg/ml | 0.25 | 0.1 | – |
| KRRLIARILRLAIRALVKKR-NH2 [SP13-1] | – | – | – | – | – | 2.5/2.5 μg/ml | 2.5/2.5 μg/ml | 5.0 µg/mL and > 10 µg/mL | 1.0 µg/mL | 2.5 µg/mL | 1.0 µg/mL | 2.5 µg/mL | 0.5 µg/mL | >10//>10 μg/ml | >10//>10 μg/ml | 1.0 | 0.5 | – |
| Magainin-2 | – | – | – | – | – | – | – | – | – | – | – | – | – | – | – | – | – | activity against Xylella fastidiosa [18]: active |
| KRKLIFLAAFLAALALFKKR-NH2 [SP15] | >100 | 40 | >100 | – | – | – | – | – | – | – | – | – | – | – | – | – | – | Minimal inhibition concentration (MIC) [2, 19]: >40 µg/mL; Minimal inhibition concentration (MIC) [3, 19]: 20 µg/mL; Minimal inhibition concentration (MIC) [4, 19]: >40 µg/mL; Minimal inhibition concentration (MIC) [5, 19]: 40 µg/mL; Minimal inhibition concentration (MIC) [9, 19]: >40 µg/mL |
